Source: patent EP0158545A1, “[Alpha-(alkylaminomethyl)-benzylthio]-acetic-acid derivatives, process for their preparation and their therapeutic use” (priority 1984, dated 1985)
Entries after “also recorded” stand apart in the source; their conditions may differ.

Experiments:
chiens [1] = experiment: Influence on noradrenaline hypertension, dog; assay type: in vivo; conditions: chien; for pression artérielle systolique, before noradrénaline: control 204; for pression artérielle systolique, after noradrénaline / hypertension à la noradrénaline: noradrénaline 2 µg/kg I.V.
Procedure: (§1) b) Sur les mêmes chiens on a étudié l'influence du produit vis à vis de l'isoprénaline et de la noradrénaline.
L'hyptertension à la noradrénaline (2 µg/kg I.V.) est augmentée par le CRL 41 252 ([…]), la pression artérielle systolique passe de 208 à 352 mmHg (soit environ de 2,77 x 10^4 à 4,7 x 10^4Pa) au lieu de 204 à 328 mmHg (soit environ de 2,71 à 4,3 x 10 Pa).

[2] = system: système nerveux central (SNC); experiment: General statement of CNS (antidepressant, sedative) properties; assay type: in vivo
chiens [3] = experiment: Cardiovascular tests in dogs, intraduodenal successive doses; assay type: in vivo, chien; conditions: for effets vasodilatateurs (propriétés cardiovasculaires): general statement
Procedure: a) Quatre chiens (poids moyen : 13,8 kg) anesthésiés au nembutal reçoivent le CRL 41 250 par voie intraduodénale, aux doses successives de 0,1 mg/kg, 0,5 mg/kg, 1 mg/kg, 2,5 mg/kg, 5 mg/kg puis 10 mg/kg. On mesure la pression artérielle, la fréquence cardiaque, le débit artériel fémoral, le débit artériel vertébral, la température rectale et on observe la coloration de la peau.
a) Deux chiens (poids moyen : 14,5 kg) reçoivent le CRL 41 252 par voie intraduodénale, aux doses successives de 0,1 mg/kg, 0,5 mg/kg, 1 mg/kg, 2,5 mg/kg, 5 mg/kg, 10 mg/kg et 20 mg/kg. On mesure la pression artérielle, la fréquence cardiaque, le débit artériel fémoral, le débit artériel vertébral, les températures rectale et cutanée et on observe la coloration de la peau.

chiens [4] = experiment: Influence on isoprenaline effects, dog; assay type: in vivo; conditions: chien
Excerpt: as §1
Avec 10,pg/kg I.V. d'isoprénaline la pression artérielle diastolique du CRL 41 252 passe de 128 à […] ([…] à 6,4 x 10^3 Pa), […]

chiens [5] = experiment: Cardiovascular tests in dogs, intraduodenal successive doses; assay type: in vivo; conditions: chien, injection I.M. de 10 mg/kg
chiens [6] = experiment: Influence on isoprenaline effects, dog; assay type: in vivo; conditions: chien, isoprénaline 10 µg/kg I.V., dose cumulée de 19,1 mg/kg I.D.
[7] = chien, successive I.D. doses 0,1 to 20 mg/kg

Compound: CC(C)(C)NCC(SCC(N)=O)c1ccccc1F (racemic) [CRL 41 252, fumaratede [α-(tertiobutylaminométhyl)-2-fluorobenzyl]-thioacétamide]
- pression artérielle systolique, before noradrénaline (chiens [1]; after dose cumulée 39,1 mg/kg I.D.): 208 mmHg
- pression artérielle systolique, after noradrénaline (chiens [1]; after dose cumulée 39,1 mg/kg I.D., control 328): 352 mmHg
- hypertension à la noradrénaline (chiens [1]; dose cumulée de 39,1 mg/kg I.D.): augmentée
- propriétés antidépressives et sédatives [2]: propriétés antidépressives et sédatives
- pression artérielle et fréquence cardiaque (chiens [3]; [7]): n'a pas d'effet sur la pression artérielle ni sur la fréquence cardiaque
- températures rectale et cutanée (chiens [3]; [7]): augmente les températures rectale et cutanée
- débits fémoraux (chiens [3]; chien, voie intraduodénale, à partir de 10 mg/kg I.D.): augmente les débits fémoraux à partir de la dose de 10 mg/kg I.D.
- effets vasodilatateurs (propriétés cardiovasculaires) (chiens [3]): effets vasodilatateurs intéressants; also recorded: effets vasodilatateurs bénéfiques
- pression artérielle diastolique, before isoprénaline (chiens [4]; after dose cumulée 39,1 mg/kg I.D., control 152): 128 mmHg
- fréquence cardiaque, before isoprénaline (chiens [4]; after dose cumulée 39,1 mg/kg I.D., control 192): 215 battements/ minute
- effets de l'isoprénaline (chiens [4]; after dose cumulée de 39,1 mg/kg I.D.): légèrement diminués
- pression artérielle diastolique, after isoprénaline (chiens [4]; isoprénaline 10,pg/kg I.V., after dose cumulée 39,1 mg/kg I.D., control 48): 58 mmHg
- fréquence cardiaque, after isoprénaline (chiens [4]; isoprénaline 10,pg/kg I.V., after dose cumulée 39,1 mg/kg I.D., control 310): 302 battements/ minute
- débits fémoraux (chiens [5]): cet effet étant confirmé par l'injection I.M. de 10 mg/kg

Compound: CC(SC(CNC(C)(C)C)c1ccccc1)C(N)=O (stereo not drawn) [CRL 41 250, fumaratede 2-{[α-(tertiobutylaminomethyl)-benzyl]-thio}-propionamide]
- pression artérielle systolique, before noradrénaline (chiens [1]; after dose cumulée 19,1 mg/kg I.D.): 191 mmHg
- pression artérielle systolique, after noradrénaline (chiens [1]; after dose cumulée 19,1 mg/kg I.D., control 304): 330 mmHg
- hypertension à la noradrénaline (chiens [1]; dose cumulée de 19,1 mg/kg I.D.): légèrement augmentée
- propriétés antidépressives et sédatives [2]: propriétés antidépressives et sédatives
- débit fémoral (chiens [3]; chien anesthésié (nembutal), dose de 19,1 mg/kg I.D.): augmente le débit fémoral
- fréquence cardiaque (chiens [3]; chien anesthésié, dose de 1 mg/kg I.D.): provoque une légère bradycardie
- pression artérielle (chiens [3]; chien anesthésié, successive I.D. doses 0,1 to 10 mg/kg): aucun effet sur la pression artérielle
- effets vasodilatateurs (propriétés cardiovasculaires) (chiens [3]): effets vasodilatateurs intéressants; also recorded: effets vasodilatateurs bénéfiques
- effect on isoprénaline response (pression artérielle diastolique, fréquence cardiaque) (chiens [6]): ne modifie pas la pression artérielle diastolique ni la fréquence cardiaque
- pression artérielle diastolique, before isoprénaline (chiens [4]; after dose cumulée 19,1 mg/kg I.D., control 151): 148 mmHg
- fréquence cardiaque, before isoprénaline (chiens [4]; after dose cumulée 19,1 mg/kg I.D., control 180): 175 battements/minute
- pression artérielle diastolique, after isoprénaline (chiens [4]; isoprénaline 10 µg/kg I.V., after dose cumulée 19,1 mg/kg I.D., control 43): 47 mmHg
- fréquence cardiaque, after isoprénaline (chiens [4]; isoprénaline 10 µg/kg I.V., after dose cumulée 19,1 mg/kg I.D., control 271): 265 battements/minute
